# Experiments:
# Test in all cases: Test D pre-/postemergence herbicide test
# kochia = assay type: in vivo, Kochia scoparia; conditions: for Plant response rating: Kochia, scale 0 to 100; for Plant response rating, Kochia: scale 0 to 100 (0 no effect, 100 complete control)
# Text: (§1) Seeds of plant species selected from bluegrass (annual bluegrass, Poa annua), blackgrass (Alopecurus myosuroides), canarygrass (littleseed canarygrass, Phalaris minor), chickweed (common chickweed, Stellaria media), galium (catchweed bedstraw, Galium aparine), bromegrass, downy (downy bromegrass, Bromus tectorum), field poppy (Papaver rhoeas), field violet (Viola arvensis), foxtail, green (green foxtail, Setaria viridis), deadnettle (henbit deadnettle, Lamium amplexicaule), ryegrass, Italian (Italian ryegrass, Lolium multiflorum), kochia (Kochia scoparia), lambsquarters (Chenopodium album), oilseed rape (Brassica napus), pigweed (Amaranthus retroflexus), chamomile (scentless chamomile, Matricaria inodora), Russian thistle (Salsola kali), speedwell (bird's-eye speedwell, Veronica persica), barley, spring (spring barley, Hordeum vulgare), wheat, spring (spring wheat, Triticum aestivum), buckwheat, wild (wild buckwheat, Polygonum convolvulus), mustard, wild (wild mustard, Sinapis arvensis), oat, wild (wild oat, Avena fatua), radish, wild (wild radish, Raphanus raphanistrum), […]), barley, winter (winter barley, Hordeum vulgare), and wheat, winter (winter wheat, Triticum aestivum) were planted into a silt loam soil and treated preemergence with test chemicals formulated in a non-phytotoxic solvent mixture which included a surfactant. At the same time, these species were planted in pots containing Redi-Earth® planting medium (Scotts Company, 14111 Scottslawn Road, Marysville, Ohio 43041) comprising spaghnum peat moss, vermiculite, wetting agent and starter nutrients and treated with postemergence applications of the test chemicals formulated in the same manner. Plants ranged in height from 2 to 18 cm (1- to 4-leaf stage). Treated plants and controls were maintained in a controlled growth environment for 7 to 21 days after which time all species were compared to controls and visually evaluated. Plant response ratings, summarized in Table D, are based on a scale of 0 to 100 where 0 is no effect and 100 is complete control. A dash (-) response means no test result.
# pigweed = assay type: in vivo, Amaranthus retroflexus; conditions: for Plant response rating: Postemergence, Pigweed, scale 0 to 100; for Plant response rating, Pigweed: Preemergence, scale 0 to 100 (0 no effect, 100 complete control)
# Text: as §1
# barley, winter = assay type: in vivo, Hordeum vulgare; conditions: for Plant response rating: Barley, Winter, scale 0 to 100; for Plant response rating, Barley, Winter: scale 0 to 100 (0 no effect, 100 complete control)
# Text: as §1
# barley, spring = assay type: in vivo, Hordeum vulgare; conditions: for Plant response rating: Barley, Spring, scale 0 to 100; for Plant response rating, Barley, Spring: scale 0 to 100 (0 no effect, 100 complete control)
# Text: as §1
# field poppy = assay type: in vivo, Papaver rhoeas; conditions: for Plant response rating: Field Poppy, scale 0 to 100; for Plant response rating, Field Poppy: scale 0 to 100 (0 no effect, 100 complete control)
# Text: as §1
# Russian thistle = assay type: in vivo, Salsola kali; conditions: for Plant response rating: Postemergence, Russian Thistle, scale 0 to 100; for Plant response rating, Russian Thistle: Preemergence, scale 0 to 100 (0 no effect, 100 complete control)
# Text: as §1
structure (smiles),measurement,setting,value
O=C1NCC(c2ccc(F)c(F)c2)C1C(=O)Nc1cccc(F)c1 (racemic) [Compound 12],Plant response rating,"kochia; Postemergence, 16 g ai/ha",5
same,Plant response rating,"kochia; Postemergence, 31 g ai/ha",5
same,Plant response rating,"kochia; Postemergence, 62 g ai/ha",20
same,Plant response rating,"kochia; Postemergence, 125 g ai/ha",20
same,Plant response rating,"kochia; Postemergence, 250 g ai/ha",35
same,"Plant response rating, Kochia","kochia; Preemergence, 31 g ai/ha",0
same,"Plant response rating, Kochia","kochia; Preemergence, 62 g ai/ha",0
same,"Plant response rating, Kochia","kochia; Preemergence, 16 g ai/ha",0
same,Plant response rating,"kochia; Preemergence, 125 g ai/ha",0
same,Plant response rating,"kochia; Preemergence, 250 g ai/ha",0
same,Plant response rating,pigweed; 16 g ai/ha,0
same,Plant response rating,pigweed; 31 g ai/ha,10
same,Plant response rating,pigweed; 62 g ai/ha,25
same,Plant response rating,pigweed; 125 g ai/ha,30
same,Plant response rating,pigweed; 250 g ai/ha,50
same,"Plant response rating, Pigweed",pigweed; 31 g ai/ha,0
same,"Plant response rating, Pigweed",pigweed; 62 g ai/ha,0
same,"Plant response rating, Pigweed",pigweed; 125 g ai/ha,0
same,"Plant response rating, Pigweed",pigweed; 250 g ai/ha,0
same,"Plant response rating, Pigweed",pigweed; 16 g ai/ha,0
same,Plant response rating,"barley, winter; Postemergence, 16 g ai/ha",0
same,Plant response rating,"barley, winter; Postemergence, 31 g ai/ha",0
same,Plant response rating,"barley, winter; Postemergence, 62 g ai/ha",0
same,Plant response rating,"barley, winter; Postemergence, 125 g ai/ha",0
same,Plant response rating,"barley, winter; Postemergence, 250 g ai/ha",0
same,"Plant response rating, Barley, Winter","barley, winter; Preemergence, 31 g ai/ha",0
same,"Plant response rating, Barley, Winter","barley, winter; Preemergence, 62 g ai/ha",0
same,"Plant response rating, Barley, Winter","barley, winter; Preemergence, 16 g ai/ha",0
same,Plant response rating,"barley, winter; Preemergence, 125 g ai/ha",0
same,Plant response rating,"barley, winter; Preemergence, 250 g ai/ha",0
same,Plant response rating,"barley, spring; Postemergence, 16 g ai/ha",0
same,Plant response rating,"barley, spring; Postemergence, 31 g ai/ha",0
same,Plant response rating,"barley, spring; Postemergence, 62 g ai/ha",5
same,Plant response rating,"barley, spring; Postemergence, 125 g ai/ha",5
same,Plant response rating,"barley, spring; Postemergence, 250 g ai/ha",5
same,"Plant response rating, Barley, Spring","barley, spring; Preemergence, 31 g ai/ha",0
same,"Plant response rating, Barley, Spring","barley, spring; Preemergence, 62 g ai/ha",0
same,"Plant response rating, Barley, Spring","barley, spring; Preemergence, 16 g ai/ha",0
same,Plant response rating,"barley, spring; Preemergence, 125 g ai/ha",0
same,Plant response rating,"barley, spring; Preemergence, 250 g ai/ha",0
same,Plant response rating,"field poppy; Postemergence, 16 g ai/ha",0
same,Plant response rating,"field poppy; Postemergence, 31 g ai/ha",0
same,Plant response rating,"field poppy; Postemergence, 62 g ai/ha",50
same,Plant response rating,"field poppy; Postemergence, 125 g ai/ha",60
same,Plant response rating,"field poppy; Postemergence, 250 g ai/ha",80
same,"Plant response rating, Field Poppy","field poppy; Preemergence, 31 g ai/ha",0
same,"Plant response rating, Field Poppy","field poppy; Preemergence, 62 g ai/ha",0
same,"Plant response rating, Field Poppy","field poppy; Preemergence, 16 g ai/ha",0
same,Plant response rating,"field poppy; Preemergence, 125 g ai/ha",0
same,Plant response rating,"field poppy; Preemergence, 250 g ai/ha",0
same,Plant response rating,Russian thistle; 16 g ai/ha,0
same,Plant response rating,Russian thistle; 31 g ai/ha,0
same,Plant response rating,Russian thistle; 62 g ai/ha,20
same,Plant response rating,Russian thistle; 125 g ai/ha,30
same,Plant response rating,Russian thistle; 250 g ai/ha,80
same,"Plant response rating, Russian Thistle",Russian thistle; 31 g ai/ha,0
same,"Plant response rating, Russian Thistle",Russian thistle; 62 g ai/ha,0
same,"Plant response rating, Russian Thistle",Russian thistle; 125 g ai/ha,0
same,"Plant response rating, Russian Thistle",Russian thistle; 250 g ai/ha,0
same,"Plant response rating, Russian Thistle",Russian thistle; 16 g ai/ha,0
O=C1NCC(c2cc(F)c(F)c(F)c2)C1C(=O)Nc1ccccc1C(F)(F)F (racemic) [Compound 33],Plant response rating,"kochia; Postemergence, 16 g ai/ha",0
same,Plant response rating,"kochia; Postemergence, 31 g ai/ha",0
same,Plant response rating,"kochia; Postemergence, 62 g ai/ha",0
same,Plant response rating,"kochia; Postemergence, 125 g ai/ha",0
same,Plant response rating,"kochia; Postemergence, 250 g ai/ha",10
same,Plant response rating,pigweed; 16 g ai/ha,0
same,Plant response rating,pigweed; 31 g ai/ha,0
same,Plant response rating,pigweed; 62 g ai/ha,0
same,Plant response rating,pigweed; 125 g ai/ha,10
same,Plant response rating,pigweed; 250 g ai/ha,10
same,Plant response rating,"barley, winter; Postemergence, 16 g ai/ha",0
same,Plant response rating,"barley, winter; Postemergence, 31 g ai/ha",0
same,Plant response rating,"barley, winter; Postemergence, 62 g ai/ha",0
same,Plant response rating,"barley, winter; Postemergence, 125 g ai/ha",0
same,Plant response rating,"barley, winter; Postemergence, 250 g ai/ha",0
same,Plant response rating,"barley, spring; Postemergence, 16 g ai/ha",0
same,Plant response rating,"barley, spring; Postemergence, 31 g ai/ha",0
same,Plant response rating,"barley, spring; Postemergence, 62 g ai/ha",0
same,Plant response rating,"barley, spring; Postemergence, 125 g ai/ha",0
same,Plant response rating,"barley, spring; Postemergence, 250 g ai/ha",0
same,Plant response rating,"field poppy; Postemergence, 16 g ai/ha",0
same,Plant response rating,"field poppy; Postemergence, 31 g ai/ha",0
same,Plant response rating,"field poppy; Postemergence, 62 g ai/ha",0
same,Plant response rating,"field poppy; Postemergence, 125 g ai/ha",0
same,Plant response rating,"field poppy; Postemergence, 250 g ai/ha",0
same,Plant response rating,Russian thistle; 16 g ai/ha,0
same,Plant response rating,Russian thistle; 31 g ai/ha,0
same,Plant response rating,Russian thistle; 62 g ai/ha,0
same,Plant response rating,Russian thistle; 125 g ai/ha,0
same,Plant response rating,Russian thistle; 250 g ai/ha,0

# — patent publication US10294202B2, “Pyrrolidinones as herbicides” (FMC Corporation, priority 2013, dated 2019)
